Results on 18 molecules are retold here after patent publication US20250066363A1, “Bicyclic DGK Inhibitors” (Incyte Corporation, priority 2023, published 2025).

The target of one assay is DGKα (Homo sapiens (Human), UniProt P23743). Nature of the assay: In vitro DGKα inhibition assay (ADP-Glo). It is filed as biochemical. The settings on record: first column of Table A; His-tagged human recombinant DGKα 0.1 nM, 50 μM ATP, 20 μM DLG.
A further assay has as its target DGKζ (Homo sapiens (Human), UniProt Q13574). Nature of the assay: In vitro DGKζ inhibition assay (ADP-Glo). It is filed as biochemical. The conditions noted are these: second column of Table A, head printed DGKα, presumably DGKζ; His-tagged human recombinant DGKζ 0.4 nM, 30 μM ATP, 20 μM DLG.

DGKζ, sequence (Q13574 whole entry): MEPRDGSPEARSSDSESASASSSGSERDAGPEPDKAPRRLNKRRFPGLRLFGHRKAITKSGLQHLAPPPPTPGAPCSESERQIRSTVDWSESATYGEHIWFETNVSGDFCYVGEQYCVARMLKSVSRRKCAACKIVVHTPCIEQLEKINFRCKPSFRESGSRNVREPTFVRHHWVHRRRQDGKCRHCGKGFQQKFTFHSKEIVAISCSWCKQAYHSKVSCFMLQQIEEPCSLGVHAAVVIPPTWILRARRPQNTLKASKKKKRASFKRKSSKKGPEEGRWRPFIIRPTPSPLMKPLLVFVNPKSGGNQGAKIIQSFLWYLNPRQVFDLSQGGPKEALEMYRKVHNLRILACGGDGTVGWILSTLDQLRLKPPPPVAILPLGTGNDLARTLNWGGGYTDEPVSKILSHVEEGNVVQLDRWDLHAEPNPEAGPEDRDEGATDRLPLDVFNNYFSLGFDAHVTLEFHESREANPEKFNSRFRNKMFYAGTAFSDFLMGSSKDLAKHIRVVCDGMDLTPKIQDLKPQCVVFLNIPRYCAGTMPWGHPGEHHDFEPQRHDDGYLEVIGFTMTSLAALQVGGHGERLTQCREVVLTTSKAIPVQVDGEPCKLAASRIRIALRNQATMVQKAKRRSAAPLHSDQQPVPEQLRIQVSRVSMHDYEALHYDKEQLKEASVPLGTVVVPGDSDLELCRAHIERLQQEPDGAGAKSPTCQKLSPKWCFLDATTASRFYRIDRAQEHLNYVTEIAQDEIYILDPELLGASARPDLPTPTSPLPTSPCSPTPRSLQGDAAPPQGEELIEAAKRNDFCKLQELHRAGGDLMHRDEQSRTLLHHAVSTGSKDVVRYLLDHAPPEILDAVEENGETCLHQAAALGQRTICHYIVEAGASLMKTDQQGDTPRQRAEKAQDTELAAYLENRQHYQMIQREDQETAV
DGKα, sequence (P23743 whole entry): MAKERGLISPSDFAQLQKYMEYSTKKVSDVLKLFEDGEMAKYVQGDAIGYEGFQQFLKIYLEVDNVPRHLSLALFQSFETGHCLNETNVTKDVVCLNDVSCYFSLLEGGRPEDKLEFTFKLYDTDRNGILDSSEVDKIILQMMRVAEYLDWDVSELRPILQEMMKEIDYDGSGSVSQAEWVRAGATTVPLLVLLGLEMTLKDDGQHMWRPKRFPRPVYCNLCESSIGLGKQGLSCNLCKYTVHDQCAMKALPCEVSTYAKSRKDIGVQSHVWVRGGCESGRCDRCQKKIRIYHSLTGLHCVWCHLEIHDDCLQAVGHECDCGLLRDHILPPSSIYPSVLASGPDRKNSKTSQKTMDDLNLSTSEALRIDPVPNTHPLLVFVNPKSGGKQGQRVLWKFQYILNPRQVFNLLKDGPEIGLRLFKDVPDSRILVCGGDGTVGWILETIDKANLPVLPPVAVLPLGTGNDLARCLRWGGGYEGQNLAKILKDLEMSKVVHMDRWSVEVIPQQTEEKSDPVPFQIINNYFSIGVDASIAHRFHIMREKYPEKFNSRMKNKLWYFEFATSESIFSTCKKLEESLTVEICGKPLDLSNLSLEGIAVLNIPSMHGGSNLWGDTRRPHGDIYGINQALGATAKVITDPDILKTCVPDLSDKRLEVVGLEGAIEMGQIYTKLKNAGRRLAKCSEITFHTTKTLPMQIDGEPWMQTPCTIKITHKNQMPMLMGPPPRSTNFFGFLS

On to `CC[C@@H]1CN(c2nc(=O)n(C)c3c2nc(C)n3C[C@@H]2CCCO2)[C@@H](C)CN1[C@H](c1ccc(C(F)(F)F)cc1)C(C)C` [Example 59, 6-((2S,5R)-5-Ethyl-2-methyl-4-((S)-2-methyl-1-(4-(trifluoromethyl)phenyl)propyl)piperazin-1-yl)-3,8-dimethyl-9-(((S)-tetrahydrofuran-2-yl)methyl)-3,9-dihydro-2H-purin-2-one], for which the IC50 at DGKα and at DGKζ was ≤ 10 nM throughout.

Take `C[C@@H]1CN(c2nc(=O)n(C)c3c2ncn3CC2(O)CCCC2)[C@@H](C)CN1C(c1ccc(Cl)cc1)C1CC(F)(F)C1` (single isomer, unassigned) [Example 66]: the IC50 at DGKα and on DGKζ was ≤ 10 nM throughout.

Regarding `CC[C@@H]1CN(c2nc(=O)n(C)c3c2nc(C)n3C[C@@H]2CCCO2)[C@@H](C)CN1[C@@H](CC)c1ccc(C(F)(F)F)cc1` [Example 28, 6-((2S,5R)-5-Ethyl-2-methyl-4-((S)-1-(4-(trifluoromethyl)phenyl)propyl)piperazin-1-yl)-3,8-dimethyl-9-(((S)-tetrahydrofuran-2-yl)methyl)-3,9-dihydro-2H-purin-2-one], the IC50 at DGKα and on DGKζ was ≤ 10 nM throughout.

On to `Cc1nc2c(N3C[C@@H](C)N([C@H](c4ccc(C(F)(F)F)cc4F)C(C)C)C[C@@H]3C)nc(=O)n(C)c2n1C[C@@H]1CCCO1` [Example 51, 6-((2S,5R)-4-((S)-1-(2-Fluoro-4-(trifluoromethyl)phenyl)-2-methylpropyl)-2,5-dimethylpiperazin-1-yl)-3,8-dimethyl-9-(((S)-tetrahydrofuran-2-yl)methyl)-3,9-dihydro-2H-purin-2-one], for which the IC50 at DGKα and on DGKζ was ≤ 10 nM each time.

On to `CC(C)CC(c1ccc(Cl)cc1)N1C[C@H](C)N(c2nc(=O)n(C)c3c2nnn3C[C@H]2CCCO2)C[C@H]1C` (single isomer, unassigned) [Example 18], for which the IC50 at DGKα and on DGKζ was ≤ 10 nM each time.

As for `CC[C@@H]1CN(c2nc(=O)n(C)c3c2nnn3C[C@H]2CCCO2)[C@@H](C)CN1[C@@H](CC)c1ccc(Cl)cc1` [Example 26, 7-((2S,5R)-4-((S)-1-(4-Chlorophenyl)propyl)-5-ethyl-2-methylpiperazin-1-yl)-4-methyl-3-(((R)-tetrahydrofuran-2-yl)methyl)-3,4-dihydro-5H-[1,2,3]triazolo[4,5-d]pyrimidin-5-one], the IC50 on DGKα and at DGKζ was ≤ 10 nM each time.

With `C[C@@H]1CN(c2nc(=O)n(C)c3c2ccn3C[C@@H]2CCCO2)[C@@H](C)CN1C(c1ccc(F)cc1)c1ccc(F)cc1` [Example 6, 4-((2S,5R)-4-(Bis(4-fluorophenyl)methyl)-2,5-dimethylpiperazin-1-yl)-1-methyl-7-(((S)-tetrahydrofuran-2-yl)methyl)-1,7-dihydro-2H-pyrrolo[2,3-d]pyrimidin-2-one], the IC50 at DGKα is ≤ 10 nM; on DGKζ it was ≤ 100 nM.

Take `C[C@@H]1CN(c2nc(=O)n(C)c3c2nnn3C[C@H]2CCCO2)[C@@H](C)CN1C(c1ccc(C(F)(F)F)cc1)C1CC(F)(F)C1` (stereo partly drawn) [Example 43, 7-((2S,5R)-4-((3,3-Difluorocyclobutyl)(4-(trifluoromethyl)phenyl)methyl)-2,5-dimethylpiperazin-1-yl)-4-methyl-3-(((R)-tetrahydrofuran-2-yl)methyl)-3,4-dihydro-5H-[1,2,3]triazolo[4,5-d]pyrimidin-5-one]: the IC50 on DGKα and at DGKζ was ≤ 10 nM in each case.

On to `CC[C@@H]1CN(c2nc(=O)[nH]c3c2nc(C)n3C[C@@H]2CCCO2)[C@@H](C)CN1C(c1ccc(F)cc1)c1ccc(F)cc1` [Example 4, 6-((2S,5R)-4-(Bis(4-fluorophenyl)methyl)-5-ethyl-2-methylpiperazin-1-yl)-8-methyl-9-(((S)-tetrahydrofuran-2-yl)methyl)-3,9-dihydro-2H-purin-2-one], for which the IC50 on DGKα and at DGKζ was ≤ 10 nM throughout.

Take `CC[C@@H]1CN(c2nc(=O)n(C)c3c2nc(C)n3C[C@@H]2CCCO2)[C@@H](C)CN1C(c1ccc(C(F)(F)F)c(F)c1)C(C)C` (single isomer, unassigned) [Example 46]: the IC50 at DGKα and on DGKζ was ≤ 10 nM each time.

For `CC(C)CC(c1ccc(Cl)cc1)N1C[C@H](C)N(c2nc(=O)n(C)c3c2nnn3C[C@@H]2CCCO2)C[C@H]1C` (single isomer, unassigned) [Example 17], the IC50 on DGKα and on DGKζ was ≤ 10 nM throughout.

For `C[C@@H]1CN(c2nc(=O)n(C)c3c2nnn3C[C@@H]2CCCO2)[C@@H](C)CN1C(c1ccc(F)cc1)c1ccc(F)cc1` [Example 12, 7-((2S,5R)-4-(Bis(4-fluorophenyl)methyl)-2,5-dimethylpiperazin-1-yl)-4-methyl-3-(((S)-tetrahydrofuran-2-yl)methyl)-3,4-dihydro-5H-[1,2,3]triazolo[4,5-d]pyrimidin-5-one], the IC50 on DGKα and at DGKζ was ≤ 10 nM throughout.

As for `CC[C@@H]1CN(c2nc(=O)n(C)c3c2nc(C)n3C[C@H]2OCC[C@@H]2O)[C@@H](C)CN1C(c1ccc(C(F)(F)F)cc1)C1CC(F)(F)C1` (single isomer, unassigned) [Example 68], the IC50 on DGKα and at DGKζ was ≤ 10 nM in each case.

As for `CC[C@@H]1CN(c2nc(=O)n(C)c3c2nc(C)n3C[C@@H]2CCCO2)[C@@H](C)CN1[C@H](C)c1ccc(C(F)(F)F)cc1` [Example 62, 6-((2S,5R)-5-ethyl-2-methyl-4-((R)-1-(4-(trifluoromethyl)phenyl)ethyl)piperazin-1-yl)-3,8-dimethyl-9-(((S)-tetrahydrofuran-2-yl)methyl)-3,9-dihydro-2H-purin-2-one], the IC50 at DGKα and on DGKζ was ≤ 10 nM each time.

`CC[C@@H]1CN(c2nc(=O)n(C)c3c2nc(C)n3C[C@@H]2CCCO2)[C@@H](C)CN1[C@@H](c1ccc(C(F)(F)F)cc1)C(C)C` [Example 60, 6-((2S,5R)-5-ethyl-2-methyl-4-((R)-2-methyl-1-(4-(trifluoromethyl)phenyl)propyl)piperazin-1-yl)-3,8-dimethyl-9-(((S)-tetrahydrofuran-2-yl)methyl)-3,9-dihydro-2H-purin-2-one]: the half-inhibitory concentration (IC50) on DGKα and on DGKζ was ≤ 10 nM in each case.

`CC[C@@H]1CN(c2nc(=O)n(C)c3c2nc(C)n3C[C@@H]2CCCO2)[C@@H](C)CN1[C@@H](C)c1ccc(C(F)(F)F)cc1` [Example 61, 6-((2S,5R)-5-Ethyl-2-methyl-4-((S)-1-(4-(trifluoromethyl)phenyl)ethyl)piperazin-1-yl)-3,8-dimethyl-9-(((S)-tetrahydrofuran-2-yl)methyl)-3,9-dihydro-2H-purin-2-one]: the IC50 on DGKα and on DGKζ was ≤ 10 nM each time.

For `C[C@@H]1CN(c2nc(=O)n(C)c3c2nnn3C[C@H]2CCCO2)[C@@H](C)CN1C(c1ccc(C(F)(F)F)cn1)c1ccc(C(F)(F)F)cn1` [Example 33, 7-((2S,5R)-4-(Bis(5-(trifluoromethyl)pyridin-2-yl)methyl)-2,5-dimethylpiperazin-1-yl)-4-methyl-3-(((R)-tetrahydrofuran-2-yl)methyl)-3,4-dihydro-5H-[1,2,3]triazolo[4,5-d]pyrimidin-5-one], the IC50 at DGKα and at DGKζ was ≤ 10 nM each time.

Take `CC[C@@H]1CN(c2nc(=O)n(C)c3c2nc(C)n3C[C@H]2OCC[C@H]2O)[C@@H](C)CN1[C@H](CC)c1ccc(C(F)(F)F)cc1` [Example 72, 6-((2S,5R)-5-ethyl-2-methyl-4-((R)-1-(4-(trifluoromethyl)phenyl)propyl)piperazin-1-yl)-9-(((2R,3R)-3-hydroxytetrahydrofuran-2-yl)methyl)-3,8-dimethyl-3,9-dihydro-2H-purin-2-one]: the IC50 at DGKα and on DGKζ was ≤ 10 nM in each case.
